Experimental data from publication PMC3648489, “The sodium glucose cotransporter 2 inhibitor empagliflozin does not prolong QT interval in a thorough QT (TQT) study” (Cardiovascular Diabetology, 2013).
Where “and” joins values, the source holds several entries; their conditions need not be identical. Identical values can stand only once. Like-named read-outs stand apart in the source and are kept apart here.

Legend:
healthy volunteers [1] = test: Thorough QT study: triplicate 12-lead ECG, QTcN and heart rate change from baseline; format: in vivo, human; conditions: for Difference from placebo in mean QTcN change from baseline, mean (SE): 1−4 hours after dosing; for Placebo-corrected MCfB in QTcN from all ECGs (90% CI): 0.5-24 hours after dosing; for Maximum upper CI of placebo-corrected QTcN change from baseline over the time course: 90% CI; for Range of adjusted means of placebo-corrected QTcN change from baseline over the time course: time points 0.5-24 hours
Procedure: This thorough QT study (TQT) was a randomised, double-blind (moxifloxacin open), placebo-controlled crossover trial which included the following treatments: 25 mg and 200 mg empagliflozin (Boehringer Ingelheim Pharma GmbH & Co. KG); 400 mg open-label moxifloxacin (Avalox®; Bayer Vital, Leverkusen, Germany); and two placebo periods, with a washout of at least seven days between treatments. Trial medication was administered in the morning after an overnight fast.
ECG recordings were made at screening and at the end of the study as part of the safety evaluation. For the QTc evaluation, ECG recordings were made on study drug administration days (as ECG profiles) at 60, 50 and 40 minutes pre-dose (to derive the period-specific baseline), and at 0.5, 1, 1.5, 2, 2.5, 3, 4, 6, 8, 12 and 24 hours post-dose (last three time points omitted for moxifloxacin treatment). At each time point, triplicate standard 12-lead ECGs (I, II, III, aVR, aVL, aVF, V1–V6) of 10 seconds’ duration each were recorded after at least 5 minutes’ rest in the supine position using CardioSoft ECG recording machines (GE Healthcare, Freiburg, Germany). ECGs were sent to a central laboratory for evaluation of PR, QRS, RR and QT intervals. The semi-automatic approach used for determination of the fiducial points provided an automatic pre-assessment using a computer algorithm, which was reviewed by a specialist and adjusted if necessary. This review was performed blinded with regard to treatment and time point.
Data from four cardiac cycles per ECG were averaged. A population heart rate-corrected QT interval (QTcN) was derived by determining the exponent δ of the relationship: QT ~ (1000 / RR)^δ (where δ is the regression effect of the covariate) using a linear mixed model on log-transformed RR and QT data (measured in ms). Data from triplicate ECGs were then averaged for each time point.
The primary endpoint was the mean change from baseline (MCfB) in QTcN which was the mean QTcN derived from ECGs obtained 1–4 hours post-dose minus mean QTcN from baseline ECGs obtained pre-dose at each visit. Plasma concentrations of both empagliflozin and moxifloxacin were expected to reach peak levels within this three-hour window, ensuring the most relevant levels of drug exposure.
(§1) Secondary endpoints were the changes from period baseline in QTcN at any time point between 0.5–24 hours after dosing. In addition, the MCfB 2–4 hours after dosing (for assessment of the moxifloxacin effect), and the MCfB of all ECGs taken 0.5–24 hours after dosing were evaluated. Safety and tolerability were evaluated based on physical examination, vital signs, ECG, clinical laboratory tests, adverse events (AEs) and the physician’s assessment of global tolerability.
Briefly, the primary analysis compared changes in the primary endpoint (QTcN MCfB over 1–4 hours) using an analysis of covariance (ANCOVA) model with ‘sequence’, ‘period’ and ‘treatment’ as fixed effects, ‘subjects nested within sequences’ as a random effect, and ‘pre-dose baseline’ as a covariate. Analyses were performed using pair-wise comparisons of the trial treatments. The saturated repeated measurements crossover (RMC) model with unstructured covariance using pair-wise comparisons of the trial treatments was used to evaluate changes from baseline in QTcN at any time point between 0.5–24 hours after dosing. […] For descriptive statistics and the exposure-response analysis, the changes from baseline in QTcN of the placebo periods were averaged prior to the derivation of the placebo corrected MCfB.
In agreement with ICH E14, all tests were performed one-sided against the threshold level of regulatory concern of 10 ms with type-I error of α=5%, which is statistically equivalent to the calculation of two-sided 90% confidence intervals for the adjusted mean estimates. […]

healthy volunteers [2] = test: Safety and tolerability (adverse events) in the TQT study; format: in vivo, human
Procedure: as §1
Categorical endpoints such as AEs, cardiologic assessments and occurrence of ECG intervals beyond thresholds of regulatory concern (e.g. QTc >450 ms) were analysed based on incidence rates adjusted for the number of periods in which the treatment was given. Additionally, the analysis of such events in periods with any of the two doses of empagliflozin compared with the two placebo periods provides a direct comparison of incidence rates. All analyses were performed on the “full analysis set”, which comprised all recorded data of all subjects who received at least one dose of study treatment and had at least one ECG endpoint assessment at baseline and post treatment. No imputation for missing data was planned or performed.

healthy volunteers [3] = test system: healthy volunteers; design: method as in PMID 19238652, PMID 15165918, PMID 15903123, PMID 11180026; conditions: moxifloxacin 400 mg; cited from earlier work
[4] = design: method as in PMID 27121669; conditions: cited from earlier work; for Cmax: read-out: Expected mean Cmax
[5] = test system: human ether-a-go-go related gene (hERG)-mediated potassium current; design: method as in unpublished data; conditions: transfected HEK293 cells; ref unpublished data; cited from earlier work
[6] = test system: guinea pig papillary muscle; design: method as in unpublished data; conditions: empagliflozin doses of ≥10 μM (so in the source); ref unpublished data; cited from earlier work
[7] = Earlier single-dose pharmacokinetic study of empagliflozin in healthy volunteers; format: in vivo, human; conditions: 200 mg versus 25 mg; based on ref 10
[8] = Empagliflozin plasma pharmacokinetics (HPLC-MS/MS) in the TQT study; format: in vivo, human; conditions: for Tmax / AUC(0-t) / Cmax: human; for Tmax: po, read-out: tmax, median; for AUC(0-t): read-out: AUC0−tz, gMean; for Cmax: read-out: Cmax, gMean
Procedure: Blood samples for pharmacokinetic measurements were taken one hour before drug administration and at the same post-dose time points as ECG measurements, except for the moxifloxacin periods. Empagliflozin concentrations in plasma were determined using a validated high performance liquid chromatography, tandem mass spectrometry (HPLC-MS/MS) assay with a lower limit of quantification of 1.11 nmol/L (0.5 ng/mL). Results were calculated using peak area ratios and calibration curves were created using weighted (1/x2) quadratic regression. […] Pharmacokinetic parameters included Cmax, tmax which were determined directly from the plasma concentration-time profiles of each, and area under the plasma concentration curve from zero to the last quantifiable time point (AUC0–tz), calculated using the linear trapezoidal method for ascending concentrations and the log trapezoidal method for descending concentrations. Pharmacokinetic parameters were determined using WinNonlin™ software v5.2 (Pharsight Corporation, Mountain View, California, USA).

[9] = moxifloxacin 400 mg, 2-4 hours after administration
[10] = single oral dose of 25 mg, healthy volunteers
[11] = empagliflozin 25 mg, 1-4 hours after administration
[12] = empagliflozin 200 mg, 1-4 hours after administration
[13] = empagliflozin 25 mg single oral dose, plasma, n=28
[14] = empagliflozin 200 mg single oral dose, plasma, n=30

## COc1c(N2C[C@@H]3CCCN[C@@H]3C2)c(F)cc2c(=O)c(C(=O)O)cn(C3CC3)c12 [Moxifloxacin, moxifloxacin, reference compound]
Healthy volunteers [1]; moxifloxacin 400 mg
  Number of volunteers with a change in QTcN more than 30 ms: Five
Healthy volunteers [1]; moxifloxacin 400 mg single dose, open-label, 2-4 hours after administration, n=29
  QTcN mean change from baseline: ΔQTcN, adjusted mean (SE): 16.0 (1.2) ms
Healthy volunteers [1]; moxifloxacin 400 mg, 0.5-6 hours post-dose, two volunteers
  Volunteers exceeding the QTcN threshold of 450 ms: 6.9%
Healthy volunteers [1]; [9]
  Difference from placebo: ΔΔHR, adjusted mean (SE): 2.2 (0.6) bpm
  HR mean change from baseline: ΔHR, adjusted mean (SE): 2.0 (0.6) bpm
Healthy volunteers [1]; moxifloxacin 400 mg, 2-4 hours post-dose, assay sensitivity
  Difference from placebo: ΔΔQTcN (placebo-corrected MCfB in QTcN), adjusted mean: 12.4 (1.0) ms
Healthy volunteers [1]; moxifloxacin 400 mg, 2-4 hours post-dose, assay sensitivity, listed as moxifloxacin
  Difference from placebo: ΔΔQTcN (placebo-corrected MCfB in QTcN), adjusted mean: 12.4 (10.7, 14.1) ms
Healthy volunteers [2]; moxifloxacin, one participant, not considered related to study medication
  Serious AE leading to study discontinuation: fatal car accident
Healthy volunteers [3]
  Prolongation of heart rate-corrected QT interval compared to placebo: 6 to 15 ms

## OC[C@H]1O[C@@H](c2ccc(Cl)c(Cc3ccc(O[C@H]4CCOC4)cc3)c2)[C@H](O)[C@@H](O)[C@@H]1O [Empagliflozin, empagliflozin]
[4]
  Effect of food on drug exposure: no clinically relevant effects of food on drug exposure
[4]; doses ≥10 mg
  Terminal elimination half-life: 10 to 13 h
[4]; single doses of empagliflozin (≥800 mg as printed)
  Time to peak levels: 1.5 to 2.5 h
[4]; [10]
  Mean tmax: 2.2 h
  Cmax: 505 nM
[4]; single oral dose of 200 mg, healthy volunteers
  Cmax: 3490 nM
[5]
  Interaction with hERG-mediated potassium current: No relevant interactions
Healthy volunteers [1]; 25 mg empagliflozin, primary analysis model with placebo period 1 only
  Difference from placebo in mean QTcN change from baseline, mean (SE): 0.2 (0.9) ms
Healthy volunteers [1]; 25 mg empagliflozin, primary analysis model with placebo period 2 only
  Difference from placebo in mean QTcN change from baseline, mean (SE): 0.6 (1.0) ms
Healthy volunteers [1]; 200 mg empagliflozin, primary analysis model with placebo period 1 only
  Difference from placebo in mean QTcN change from baseline, mean (SE): -0.5 (0.8) ms
Healthy volunteers [1]; 200 mg empagliflozin, primary analysis model with placebo period 2 only
  Difference from placebo in mean QTcN change from baseline, mean (SE): 0.1 (0.8) ms
Healthy volunteers [1]; both doses (25 mg and 200 mg), CIs include zero
  Slope estimates of exposure-response relationship between empagliflozin and heart rate: slope estimates close to zero
Healthy volunteers [1]; both empagliflozin doses (25 mg and 200 mg)
  Range of adjusted means of placebo-corrected heart rate change from baseline over the time course: -1.2 to 1.5 bpm
Healthy volunteers [1]; both empagliflozin doses (25 mg and 200 mg), all CIs within
  90% CIs of placebo-corrected heart rate change from baseline over the time course: -3 to 3 bpm
Healthy volunteers [1]; empagliflozin 25 mg
  Intercept of exposure-response analysis of placebo-corrected QTcN change from baseline: 0.35 ms
  Slope (estimate) of exposure-response analysis of placebo-corrected QTcN change from baseline: -0.0007 ms/(nmol/L)
  Placebo-corrected MCfB in QTcN from all ECGs (90% CI): 0.7 (90% CI: -0.4, 1.7) ms
  Maximum upper CI of placebo-corrected QTcN change from baseline over the time course: 4.7 ms
  Range of adjusted means of placebo-corrected QTcN change from baseline over the time course: -2.7 to 2.2 ms
Healthy volunteers [1]; empagliflozin 25 mg single oral dose, 1-4 hours after administration, n=28
  QTcN mean change from baseline: ΔQTcN, adjusted mean (SE): 4.3 (1.1) ms
Healthy volunteers [1]; empagliflozin 25 mg, 0.5-24 hours post-dose, one volunteer
  Volunteers exceeding the QTcN threshold of 450 ms: 3.6%
Healthy volunteers [1]; [11]
  Difference from placebo: ΔΔHR, adjusted mean (SE): -0.9 (0.5) bpm
  HR mean change from baseline: ΔHR, adjusted mean (SE): -1.2 (0.5) bpm
Healthy volunteers [1]; empagliflozin 25 mg, 1-4 hours after dosing, both placebo periods
  Difference from placebo: ΔΔQTcN (placebo-corrected MCfB in QTcN), adjusted mean: 0.6 (0.8) ms
Healthy volunteers [1]; empagliflozin 25 mg, 1-4 hours after dosing, both placebo periods, listed as empagliflozin
  Difference from placebo: ΔΔQTcN (placebo-corrected MCfB in QTcN), adjusted mean: 0.6 (90% CI: -0.7, 1.9) ms and 0.6 (90% confidence interval [CI]: -0.7, 1.9) ms
Healthy volunteers [1]; empagliflozin 25 mg, at gMean Cmax 768 nmol/L
  Predicted value of placebo-corrected change from baseline QTcN at gMean of Cmax, estimate: -0.20 ms
Healthy volunteers [1]; empagliflozin 200 mg
  Intercept of exposure-response analysis of placebo-corrected QTcN change from baseline: -0.60 ms
  Slope (estimate) of exposure-response analysis of placebo-corrected QTcN change from baseline: -0.0000 ms/(nmol/L)
  Placebo-corrected MCfB in QTcN from all ECGs (90% CI): -0.2 (-1.2, 0.9) ms
  Maximum upper CI of placebo-corrected QTcN change from baseline over the time course: 3.5 ms
  Range of adjusted means of placebo-corrected QTcN change from baseline over the time course: -1.8 to 1.6 ms
Healthy volunteers [1]; empagliflozin 200 mg single oral dose, 1-4 hours after administration, n=30
  QTcN mean change from baseline: ΔQTcN, adjusted mean (SE): 3.4 (0.9) ms
Healthy volunteers [1]; empagliflozin 200 mg, 0.5-24 hours post-dose, two volunteers
  Volunteers exceeding the QTcN threshold of 450 ms: 6.7%
Healthy volunteers [1]; [12]
  Difference from placebo: ΔΔHR, adjusted mean (SE): 0.0 (0.5) bpm
  HR mean change from baseline: ΔHR, adjusted mean (SE): -0.3 (0.5) bpm
Healthy volunteers [1]; empagliflozin 200 mg, 1-4 hours after dosing, both placebo periods
  Difference from placebo: ΔΔQTcN (placebo-corrected MCfB in QTcN), adjusted mean: -0.2 (0.7) ms
Healthy volunteers [1]; empagliflozin 200 mg, 1-4 hours after dosing, both placebo periods, listed as empagliflozin
  Difference from placebo: ΔΔQTcN (placebo-corrected MCfB in QTcN), adjusted mean: -0.2 (-1.4, 0.9) ms
Healthy volunteers [1]; empagliflozin 200 mg, at gMean Cmax 4860 nmol/L
  Predicted value of placebo-corrected change from baseline QTcN at gMean of Cmax, estimate: -0.64 ms
[6]
  Effect on action potential configuration or contractile function: no effect on action potentials
Healthy volunteers [2]; human, in vivo
  Volunteers experiencing AEs: 23.3%
[7]
  Cmax ratio supratherapeutic dose versus therapeutic dose: ~ 7 fold
[8]; 25 mg and 200 mg single doses
  Dose proportionality of empagliflozin exposure: increased approximately dose proportionally
[8]; [13]
  tmax, median: 1.5 h
  AUC(0-t): 4.86 µM·h
  Cmax: 768 nM
[8]; plasma, 25 mg, empagliflozin 25 mg single oral dose, plasma, n=28
  Tmax: ~1.5 h
[8]; plasma, 200 mg, empagliflozin 200 mg single oral dose, plasma, n=30
  Tmax: ~1.8 h
[8]; [14]
  AUC(0-t): 36.4 µM·h
  Cmax: 4860 nM
